Laboratory results as given in PMC13476077, “Systematic comparison of temporal hepatotoxicant-induced gene network responses across 3 liver test systems” (Toxicological Sciences, 2026).

Test: Pharmacokinetic properties from the literature
Assay type: in vivo
Details: Minimal PBPK model; Derived using WinNonLin, ref Huang et al. (1986)
From the text: Compound-specific physicochemical properties (e.g., pKa, fraction unbound in plasma, etc.) are detailed in Table S1B and were used to parameterize each model.

CC(=O)N1CCN(c2ccc(OCC3COC(Cn4ccnc4)(c4ccc(Cl)cc4Cl)O3)cc2)CC1 (stereo not shown) [Ketoconazole]
Vss: 0.345 L/kg
